Assay results taken from ChEMBL document CHEMBL3526097, “Preclinical disposition of GDC-0973 and prospective and retrospective analysis of human dose and efficacy predictions” (Drug Metab Dispos, 2012).
Values belong to the compound of their own block, whether it stands above or below them.

Experiments:
[1] = tested on: Liver; experiment: Drug uptake in Long-Evans rat liver at 30 mg/kg, po after 2 hrs by autoradiography; format: ADME, organism-based; parameters: dose 30 mg/kg, route oral; conditions: in vivo
[2] = tested on: Large intestine; experiment: Drug uptake in Long-Evans rat large intestine at 30 mg/kg, po after 2 hrs by autoradiography; format: ADME, organism-based; parameters: dose 30 mg/kg, route oral; conditions: in vivo
[3] = tested on: Lung; experiment: Drug uptake in Long-Evans rat lung at 30 mg/kg, po after 2 hrs by autoradiography; format: ADME, organism-based; parameters: dose 30 mg/kg, route oral; conditions: in vivo
[4] = tested on: Adrenal gland; experiment: Drug uptake in Long-Evans rat adrenal gland at 30 mg/kg, po after 2 hrs by autoradiography; format: ADME, organism-based; parameters: dose 30 mg/kg, route oral; conditions: in vivo
[5] = Drug uptake in Long-Evans rat lacrimal gland at 30 mg/kg, po after 2 hrs by autoradiography; format: ADME, organism-based, Lachrymal gland; parameters: dose 30 mg/kg, route oral; conditions: in vivo
[6] = tested on: Cerebrum; experiment: Drug uptake in Long-Evans rat cerebrum at 30 mg/kg, po after 4 hrs by autoradiography; format: ADME, organism-based; parameters: dose 30 mg/kg, route oral; conditions: in vivo
[7] = tested on: Liver; experiment: Drug uptake in Long-Evans rat liver at 30 mg/kg, po after 72 hrs by autoradiography; format: ADME, organism-based; parameters: dose 30 mg/kg, route oral; conditions: in vivo
[8] = tested on: Kidney; experiment: Drug uptake in Long-Evans rat kidney at 30 mg/kg, po after 72 hrs by autoradiography; format: ADME, organism-based; parameters: dose 30 mg/kg, route oral; conditions: in vivo
[9] = tested on: Intestine; experiment: Drug uptake in Long-Evans rat intestine at 30 mg/kg, po after 72 hrs by autoradiography; format: ADME, organism-based; parameters: dose 30 mg/kg, route oral; conditions: in vivo
[10] = Drug uptake in Long-Evans rat melanin containing tissue at 30 mg/kg, po after 72 hrs by autoradiography; format: ADME, organism-based; parameters: dose 30 mg/kg, route oral; conditions: in vivo
[11] = Drug excretion in bile duct-intact Sprague-Dawley rat feces at 30 mg/kg, po after 48 hrs by liquid scintillation counting; format: ADME, organism-based; parameters: dose 30 mg/kg, route oral; conditions: in vivo
[12] = Drug excretion in bile duct-intact Sprague-Dawley rat urine at 30 mg/kg, po after 48 hrs by liquid scintillation counting; format: ADME, organism-based; parameters: dose 30 mg/kg, route oral; conditions: in vivo
[13] = Drug excretion in bile duct-cannulated Sprague-Dawley rat bile at 30 mg/kg, po after 48 hrs by liquid scintillation counting; format: ADME, organism-based; parameters: dose 30 mg/kg, route oral; conditions: in vivo
[14] = Drug excretion in bile duct-intact Beagle dog feces at 30 mg/kg, po after 72 hrs by liquid scintillation counting; format: ADME, organism-based, Canis lupus familiaris; parameters: dose 30 mg/kg, route oral; conditions: in vivo
[15] = Drug excretion in bile duct-intact Beagle dog urine at 30 mg/kg, po after 72 hrs by liquid scintillation counting; format: ADME, organism-based, Canis lupus familiaris; parameters: dose 30 mg/kg, route oral; conditions: in vivo
[16] = Drug excretion in bile duct-cannulated Beagle dog bile at 30 mg/kg, po after 168 hrs by liquid scintillation counting; format: ADME, organism-based, Canis lupus familiaris; parameters: dose 30 mg/kg, route oral; conditions: in vivo
[17] = Ratio of drug level in blood to plasma in CD1 mouse at 10 uM after 30 mins; format: ADME
[18] = Ratio of drug level in blood to plasma in Sprague-Dawley rat at 1 uM after 30 mins; format: ADME
[19] = Ratio of drug level in blood to plasma in Sprague-Dawley rat at 5 uM after 30 mins; format: ADME
[20] = Ratio of drug level in blood to plasma in Sprague-Dawley rat at 10 uM after 30 mins; format: ADME
[21] = Ratio of drug level in blood to plasma in beagle dog at 1 uM after 30 mins; format: ADME, Canis lupus familiaris
[22] = Ratio of drug level in blood to plasma in beagle dog at 5 uM after 30 mins; format: ADME, Canis lupus familiaris
[23] = Ratio of drug level in blood to plasma in beagle dog at 10 uM after 30 mins; format: ADME, Canis lupus familiaris
[24] = Ratio of drug level in blood to plasma in cynomolgus monkey at 1 uM after 30 mins; format: ADME, Macaca fascicularis
[25] = Ratio of drug level in blood to plasma in cynomolgus monkey at 5 uM after 30 mins; format: ADME, Macaca fascicularis
[26] = Ratio of drug level in blood to plasma in cynomolgus monkey at 10 uM after 30 mins; format: ADME, Macaca fascicularis
[27] = Ratio of drug level in blood to plasma in human at 1 uM after 30 mins; format: ADME
[28] = Ratio of drug level in blood to plasma in human at 5 uM after 30 mins; format: ADME
[29] = Ratio of drug level in blood to plasma in human at 10 uM after 30 mins; format: ADME
[30] = Percentage unbound in mouse plasma at 1 uM after 5 hrs by equilibrium dialysis; format: ADME, cell-free
[31] = Percentage unbound in mouse plasma at 5 uM after 5 hrs by equilibrium dialysis; format: ADME, cell-free
[32] = Percentage unbound in mouse plasma at 10 uM after 5 hrs by equilibrium dialysis; format: ADME, cell-free
[33] = Percentage unbound in rat plasma at 1 uM after 5 hrs by equilibrium dialysis; format: ADME, cell-free
[34] = Percentage unbound in rat plasma at 5 uM after 5 hrs by equilibrium dialysis; format: ADME, cell-free
[35] = Percentage unbound in rat plasma at 10 uM after 5 hrs by equilibrium dialysis; format: ADME, cell-free
[36] = Percentage unbound in dog plasma at 1 uM after 5 hrs by equilibrium dialysis; format: ADME, cell-free, Canis lupus familiaris
[37] = Percentage unbound in dog plasma at 5 uM after 5 hrs by equilibrium dialysis; format: ADME, cell-free, Canis lupus familiaris
[38] = Percentage unbound in dog plasma at 10 uM after 5 hrs by equilibrium dialysis; format: ADME, cell-free, Canis lupus familiaris
[39] = Percentage unbound in cynomolgus monkey plasma at 1 uM after 5 hrs by equilibrium dialysis; format: ADME, cell-free, Macaca fascicularis
[40] = Percentage unbound in cynomolgus monkey plasma at 5 uM after 5 hrs by equilibrium dialysis; format: ADME, cell-free, Macaca fascicularis
[41] = Percentage unbound in cynomolgus monkey plasma at 10 uM after 5 hrs by equilibrium dialysis; format: ADME, cell-free, Macaca fascicularis
[42] = Percentage unbound in human plasma at 1 uM after 5 hrs by equilibrium dialysis; format: ADME, cell-free
[43] = Percentage unbound in human plasma at 5 uM after 5 hrs by equilibrium dialysis; format: ADME, cell-free
[44] = Percentage unbound in human plasma at 10 uM after 5 hrs by equilibrium dialysis; format: ADME, cell-free
[45] = Percentage unbound in human alpha-1-acid glycoprotein at 1 uM after 5 hrs by equilibrium dialysis; format: ADME
[46] = Percentage unbound in human alpha-1-acid glycoprotein at 5 uM after 5 hrs by equilibrium dialysis; format: ADME
[47] = Percentage unbound in human alpha-1-acid glycoprotein at 10 uM after 5 hrs by equilibrium dialysis; format: ADME
[48] = molecular target: T1, Albumin (Homo sapiens, UniProt P02768); experiment: Percentage unbound in human serum albumin at 1 uM after 5 hrs by equilibrium dialysis; format: ADME
[49] = molecular target: T1, Albumin; experiment: Percentage unbound in human serum albumin at 5 uM after 5 hrs by equilibrium dialysis; format: ADME
[50] = molecular target: T1, Albumin; experiment: Percentage unbound in human serum albumin at 10 uM after 5 hrs by equilibrium dialysis; format: ADME
[51] = Ratio of drug level in blood to plasma in CD1 mouse at 1 uM after 30 mins; format: ADME
[52] = Ratio of drug level in blood to plasma in CD1 mouse at 5 uM after 30 mins; format: ADME
[53] = Efflux ratio of permeability from […] side in MDCK1 cells expressing MDR1 at 10 uM after 2 hrs by LC-MS/MS analysis; format: ADME, cell-based, Canis lupus familiaris; conditions: dog, mdck1, 2 h

T1 sequence (P02768 whole entry): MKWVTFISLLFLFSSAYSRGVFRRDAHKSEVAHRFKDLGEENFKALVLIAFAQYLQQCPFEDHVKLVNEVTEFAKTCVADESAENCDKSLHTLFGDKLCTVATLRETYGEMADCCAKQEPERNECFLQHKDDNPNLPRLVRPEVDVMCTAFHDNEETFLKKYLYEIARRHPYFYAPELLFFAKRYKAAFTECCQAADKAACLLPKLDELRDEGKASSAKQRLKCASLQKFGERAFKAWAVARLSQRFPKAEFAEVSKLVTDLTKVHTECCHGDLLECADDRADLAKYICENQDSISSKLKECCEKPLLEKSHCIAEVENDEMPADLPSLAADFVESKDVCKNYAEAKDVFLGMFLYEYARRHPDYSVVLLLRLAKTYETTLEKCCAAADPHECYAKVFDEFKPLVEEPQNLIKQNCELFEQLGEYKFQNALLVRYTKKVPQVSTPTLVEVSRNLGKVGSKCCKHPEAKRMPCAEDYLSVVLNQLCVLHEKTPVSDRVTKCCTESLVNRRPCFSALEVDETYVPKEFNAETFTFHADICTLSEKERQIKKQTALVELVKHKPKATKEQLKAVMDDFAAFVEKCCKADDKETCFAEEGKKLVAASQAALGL

Drug uptake [1]: Active | Drug uptake [2]: Active | Drug uptake [3]: Active | Drug uptake [4]: Active | Drug uptake [5]: Active | Drug uptake [6]: Active | Drug uptake [7]: Active | Drug uptake [8]: Active | Drug uptake [9]: Active | Drug uptake [10]: Active | Drug excretion [11]: 85% | Drug excretion [12]: 2.2% | Drug excretion [13]: 74% | Drug excretion [14]: 80% | Drug excretion [15]: 6.3% | Drug excretion [16]: 65% | blood plasma ratio at 0.5 h, 10 µM [17]: 1.27 | blood plasma ratio at 0.5 h, 1 µM [18]: 1.36 | blood plasma ratio at 0.5 h, 5 µM [19]: 1.37 | blood plasma ratio at 0.5 h, 10 µM [20]: 1.51 | blood plasma ratio at 0.5 h, 1 µM [21]: 0.632 | blood plasma ratio at 0.5 h, 5 µM [22]: 0.752 | blood plasma ratio at 0.5 h, 10 µM [23]: 0.936 | blood plasma ratio at 0.5 h, 1 µM [24]: 1.57 | blood plasma ratio at 0.5 h, 5 µM [25]: 1.64 | blood plasma ratio at 0.5 h, 10 µM [26]: 1.82 | blood plasma ratio at 0.5 h, 1 µM [27]: 0.933 | blood plasma ratio at 0.5 h, 5 µM [28]: 0.945 | blood plasma ratio at 0.5 h, 10 µM [29]: 1.05 | fraction unbound at 5 h, 1 µM [30]: 0.041 | fraction unbound at 5 h, 5 µM [31]: 0.034 | fraction unbound at 5 h, 10 µM [32]: 0.033 | fraction unbound at 5 h, 1 µM [33]: 0.028 | fraction unbound at 5 h, 5 µM [34]: 0.035 | fraction unbound at 5 h, 10 µM [35]: 0.037 | fraction unbound at 5 h, 1 µM [36]: 0.007 | fraction unbound at 5 h, 5 µM [37]: 0.012 | fraction unbound at 5 h, 10 µM [38]: 0.014 | fraction unbound at 5 h, 1 µM [39]: 0.045 | fraction unbound at 5 h, 5 µM [40]: 0.044 | fraction unbound at 5 h, 10 µM [41]: 0.048 | fraction unbound at 5 h, 1 µM [42]: 0.052 | fraction unbound at 5 h, 5 µM [43]: 0.065 | fraction unbound at 5 h, 10 µM [44]: 0.058 | fraction unbound at 5 h, 1 µM [45]: 0.044 | fraction unbound at 5 h, 5 µM [46]: 0.042 | fraction unbound at 5 h, 10 µM [47]: 0.053 | fraction unbound at 5 h, 1 µM [48]: 0.469 | fraction unbound at 5 h, 5 µM [49]: 0.408 | fraction unbound at 5 h, 10 µM [50]: 0.408 | blood plasma ratio at 0.5 h, 1 µM [51]: 1.16 | blood plasma ratio at 0.5 h, 5 µM [52]: 1.19
Structure (SMILES): O=C(c1ccc(F)c(F)c1N[14c]1[14cH][14cH][14c](I)[14cH][14c]1F)N1CC(O)([C@@H]2CCCCN2)C1

Ratio [53]: 72
Structure (SMILES): C[C@H]1O[C@@H](O[C@H]2[C@@H](O)C[C@H](O[C@H]3[C@@H](O)C[C@H](O[C@H]4CC[C@@]5(C)[C@H](CC[C@@H]6[C@@H]5C[C@@H](O)[C@]5(C)[C@@H](C7=CC(=O)OC7)CC[C@]65O)C4)O[C@@H]3C)O[C@@H]2C)C[C@H](O)[C@@H]1O [DIGOXIN]
